Laboratory results: patent US20100298141A1, “SUBSTITUTED PYRIDINE N-OXIDE HERBICIDES” (E. I. DU PONT DE NEMOURS AND COMPANY, priority 2007, published 2010)

Experiments:
crabgrass = assay: Test A pre-/postemergence greenhouse test; format: in vivo, Digitaria sanguinalis; settings: for Crabgrass, Large plant response rating: 0 to 100 scale
How it was run: (§1)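 Pots of loam–sand soil sown with the test species are sprayed preemergence on the soil surface; emerged seedlings (1–2 leaves, 2–10 cm) are sprayed postemergence at the same time. The vehicle is a non-phytotoxic solvent mixture with surfactant. Injury is scored visually after ~10 d in greenhouse.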

yellow nutsedge = assay: Test C pre-/postemergence test; format: in vivo, Cyperus esculentus; settings: Preemergence
How it was run: (§2)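 Compounds in a non-phytotoxic solvent with surfactant applied preemergence to seeded pots and, at the same time, postemergence to plants 2–18 cm tall (1- to 4-leaf stage). Paddy tests: pots flooded to 3 cm, compound applied into the water, depth held throughout.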

wheat = assay: Test A pre-/postemergence greenhouse test; format: in vivo, Triticum aestivum; settings: for Wheat plant response rating: 0 to 100 scale
How it was run: as §1

morningglory [1] = assay: Test A pre-/postemergence greenhouse test; format: in vivo, Ipomoea spp.; settings: for Morningglory plant response rating: 0 to 100 scale
How it was run: as §1

Goosegrass = assay: Test C pre-/postemergence test; format: in vivo, Eleusin indica; settings: Preemergence
How it was run: as §2

soybean = assay: Test C pre-/postemergence test; format: in vivo, Glycine max; settings: Preemergence
How it was run: as §2

cocklebur = assay: Test C pre-/postemergence test; format: in vivo, Xanthium strumarium
How it was run: as §2

giant foxtail [2] = assay: Test C pre-/postemergence test; format: in vivo, Setaria faberii; settings: Preemergence
How it was run: as §2

lambsquarters = assay: Test C pre-/postemergence test; format: in vivo, Chenopodium album; settings: Preemergence
How it was run: as §2

morningglory [3] = assay: Test C pre-/postemergence test; format: in vivo, Ipomoea coccinea; settings: Preemergence
How it was run: as §2

woolly cupgrass = assay: Test C pre-/postemergence test; format: in vivo, Eriochloa villosa; settings: Preemergence
How it was run: as §2

corn = assay: Test C pre-/postemergence test; format: in vivo, Zea mays
How it was run: as §2

downy brome = assay: Test C pre-/postemergence test; format: in vivo, Bromus tectorum
How it was run: as §2

johnsongrass = assay: Test C pre-/postemergence test; format: in vivo, Sorghum halepense; settings: Preemergence
How it was run: as §2

giant foxtail [4] = assay: Test A pre-/postemergence greenhouse test; format: in vivo, Setaria faberi; settings: for Foxtail, Giant plant response rating: 0 to 100 scale
How it was run: as §1

umbrella sedge = assay: Test C flooded paddy test; format: in vivo, Cyperus difformis; settings: Flood
How it was run: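 Ratings were visual and made relative to untreated controls after 13 to 15 greenhouse days.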

common ragweed = assay: Test C pre-/postemergence test; format: in vivo, Ambrosia elation; settings: Preemergence
How it was run: as §2

[5] = Postemergence, 125 g ai/ha, 0 is no effect, 100 is complete control
[6] = Postemergence, 500 g ai/ha, 0 is no effect, 100 is complete control
[7] = Preemergence, 125 g ai/ha, 0 no effect, 100 complete control
[8] = Preemergence, 500 g ai/ha, 0 to 100 scale where 0 is no effect and 100 is complete control
[9] = 31 g ai/ha, scale 0 to 100 (0 no effect, 100 complete control)
[10] = 62 g ai/ha, Preemergence, scale 0 to 100
[11] = Preemergence, 31 g ai/ha, scale 0 to 100 (0 no effect, 100 complete control)
[12] = preemergence, 125 g ai/ha, scale 0 (no effect) to 100 (complete control)

Cn1nc(C(F)(F)F)c(CS(=O)(=O)c2ccc(Cl)c[n+]2[O-])c1Cl [Compound 18]
15: Plant response rating (0 to 100), Corn (corn; Preemergence, 250 g ai/ha)
5: Plant response rating, Johnsongrass (johnsongrass; [9])
65: Plant response rating, Foxtail, Giant (giant foxtail [2]; [9])
30: Wheat plant response rating (wheat; [6])
20: Plant response rating, Wheat (wheat; [8]) | Morningglory plant response rating (morningglory [1]; [6]) | Plant response rating, Morningglory (morningglory [1]; [8])
100: Goosegrass plant response rating (Goosegrass; 62 g ai/ha, scale 0 to 100) | Plant response rating (0 to 100), Goosegrass (Goosegrass; 250 g ai/ha) | Plant response rating (0 to 100), Foxtail, Giant (giant foxtail [2]; 250 g ai/ha) | Plant response rating (0 to 100), Cupgrass, Woolly (woolly cupgrass; 250 g ai/ha) | Johnsongrass plant response rating (johnsongrass; 62 g ai/ha, scale 0 to 100) | Plant response rating (0 to 100), Johnsongrass (johnsongrass; 250 g ai/ha) | Plant response rating, Foxtail, Giant (giant foxtail [4]; [8])
0: Nutsedge, Yellow plant response rating (yellow nutsedge; 62 g ai/ha, scale 0 to 100) | Plant response rating, Nutsedge, Yellow (yellow nutsedge; [9]) | Wheat plant response rating (wheat; [5]) | Wheat plant response rating (wheat; [7]) | Morningglory plant response rating (morningglory [1]; [5]) | Morningglory plant response rating (morningglory [1]; [7]) | Soybean plant response rating (soybean; 62 g ai/ha, scale 0 to 100) | Plant response rating, Soybean (soybean; [9]) | Cocklebur plant response rating (cocklebur; [10]) | Plant response rating, Cocklebur (cocklebur; [11]) | Plant response rating (0 to 100), Cocklebur (cocklebur; Preemergence, 250 g ai/ha) | Cocklebur plant response rating (cocklebur; [12]) | Lambsquarters plant response rating (lambsquarters; 62 g ai/ha, scale 0 to 100) | Plant response rating, Lambsquarters (lambsquarters; [9]) | Morningglory plant response rating (morningglory [3]; 62 g ai/ha, scale 0 to 100) | Plant response rating, Morningglory (morningglory [3]; [9]) | Corn plant response rating (corn; [10]) | Plant response rating, Corn (corn; [11]) | Corn plant response rating (corn; [12]) | Bromegrass, Downy plant response rating (downy brome; [10]) | Plant response rating, Bromegrass, Downy (downy brome; [11]) | Plant response rating (0 to 100), Bromegrass, Downy (downy brome; Preemergence, 250 g ai/ha) | Bromegrass, Downy plant response rating (downy brome; [12]) | Plant response rating, Sedge, Umbrella (umbrella sedge; [9]) | Plant response rating, Sedge, Umbrella (umbrella sedge; 62 g ai/ha, scale 0 to 100, 0 no effect, 100 complete control, 13 to 15 days) | Ragweed plant response rating (common ragweed; 62 g ai/ha, scale 0 to 100) | Plant response rating, Ragweed (common ragweed; [9])
80: Crabgrass, Large plant response rating (crabgrass; [6]) | Crabgrass, Large plant response rating (crabgrass; [7]) | Cupgrass, Woolly plant response rating (woolly cupgrass; 62 g ai/ha, scale 0 to 100) | Foxtail, Giant plant response rating (giant foxtail [4]; [6]) | Plant response rating, Sedge, Umbrella (umbrella sedge; 125 g ai/ha, scale 0 to 100, 0 no effect, 100 complete control, 13 to 15 days)
10: Plant response rating, Cupgrass, Woolly (woolly cupgrass; [9])
60: Crabgrass, Large plant response rating (crabgrass; [5]) | Foxtail, Giant plant response rating (giant foxtail [4]; [5])
90: Plant response rating, Crabgrass, Large (crabgrass; [8]) | Plant response rating, Goosegrass (Goosegrass; [9]) | Foxtail, Giant plant response rating (giant foxtail [4]; [7])
85: Foxtail, Giant plant response rating (giant foxtail [2]; 62 g ai/ha, scale 0 to 100) | Plant response rating, Sedge, Umbrella (umbrella sedge; 250 g ai/ha, scale 0 to 100, 0 no effect, 100 complete control, 13 to 15 days)
